Data: paper PMC10840477 (Acta Pharmaceutica Sinica. B, 2023)
One block for each compound: values may come before it.

Key:
ICR mice [1] = test: Forced swimming test; type: in vivo, mouse; conditions: p.o. 20 mg/kg, positive control, final 4 min of 6 min test
ICR mice [2] = test: Tail suspension test; type: in vivo, mouse; conditions: p.o. 20 mg/kg, positive control, final 4 min of 6 min test
P2Y12 = P2Y12 (Homo sapiens, UniProt Q9H244); test: P2Y12 β-Arrestin recruitment assay; type: cell-based; conditions: at similar concentrations as TP1; antagonist mode, n = 2
ICR mice [3] = test: In vivo acute pulmonary thrombosis; parameters: species or system mouse; conditions: three days, positive control

P2Y12, sequence (Q9H244 whole entry): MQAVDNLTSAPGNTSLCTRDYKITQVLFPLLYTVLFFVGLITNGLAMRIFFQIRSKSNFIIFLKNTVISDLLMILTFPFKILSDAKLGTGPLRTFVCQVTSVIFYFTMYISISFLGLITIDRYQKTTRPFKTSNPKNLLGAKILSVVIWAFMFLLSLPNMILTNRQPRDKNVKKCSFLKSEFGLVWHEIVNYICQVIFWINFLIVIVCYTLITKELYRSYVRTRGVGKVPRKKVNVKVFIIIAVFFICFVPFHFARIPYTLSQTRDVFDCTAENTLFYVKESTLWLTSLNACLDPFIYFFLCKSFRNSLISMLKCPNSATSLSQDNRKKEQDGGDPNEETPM

Compound: CNCCC(Oc1ccc(C(F)(F)F)cc1)c1ccccc1 (stereo not drawn) [fluoxetine]
Decrease of immobility time, forced swimming test (ICR mice [1]): 42.52 ± 9.96 s
Decrease of immobility time, tail suspension test (ICR mice [2]): 30.01 ± 7.22 s

Inhibitory effects against P2Y12 activation (P2Y12): did not display inhibitory effects
Compound: CC(C)=CCC[C@](C)(O[C@@H]1O[C@H](CO[C@@H]2O[C@H](CO)[C@@H](O)[C@H](O)[C@H]2O)[C@@H](O)[C@H](O)[C@H]1O)[C@H]1CC[C@]2(C)[C@@H]1[C@H](O)C[C@@H]1[C@@]3(C)CC[C@H](O[C@@H]4O[C@H](CO)[C@@H](O)[C@H](O)[C@H]4O[C@@H]4O[C@H](CO)[C@@H](O)[C@H](O)[C@H]4O)C(C)(C)[C@@H]3CC[C@]12C [ginsenoside Rb1]

Inhibitory effects against P2Y12 activation (P2Y12): did not display inhibitory effects
Compound: CC(C)=CCC[C@](C)(O[C@@H]1O[C@H](CO)[C@@H](O)[C@H](O)[C@H]1O)[C@H]1CC[C@]2(C)[C@@H]1[C@H](O)C[C@@H]1[C@@]3(C)CC[C@H](O)C(C)(C)[C@@H]3[C@@H](O[C@@H]3O[C@H](CO)[C@@H](O)[C@H](O)[C@H]3O)C[C@]12C [ginsenoside Rg1]

Compound: COC(=O)[C@H](c1ccccc1Cl)N1CCc2sccc2C1 [clopidogrel]
Thrombus formation in the lung, effect relative to ginsentide TP1 (ICR mice [3]; oral clopidogrel 50 mg/kg): comparable

Compound: CC(=O)Oc1ccccc1C(=O)O [aspirin]
Thrombus formation in the lung, effect relative to ginsentide TP1 (ICR mice [3]; oral aspirin 100 mg/kg): comparable
